From patent US20020028938A1, “Prostaglandin endoperoxide H synthase biosynthesis inhibitors” (priority 1997, published 2002)

SMILES | melting point
CC(C)COc1c(-c2ccc(S(N)(=O)=O)c(F)c2)cnn(CC(F)(F)F)c1=O [Example 382, 2-(2,2,2-Trifluoroethyl)-4-(2-methylpropoxy)-5-[3-fluoro-4-(aminosulfonyl)phenyl]-3(2H)-pyridazinone] | 163 to 164 °C
CC(C)(O)CCOc1c(-c2ccc(S(N)(=O)=O)cc2)cnn(-c2ccc(F)c(F)c2)c1=O [Example 472, 2-(3,4-Difluorophenyl)-4-(3-hydroxy-3-methyl-1-butoxy)-5-[4-(aminosulfonyl)phenyl]-3(2H)-pyridazinone] | 181 °C
CC(C)Oc1c(-c2ccc(S(C)(=O)=O)cc2)cnn(-c2cccc(Cl)c2)c1=O [Example 201, 2-(3-Chlorophenyl)-4-(2-propoxy)-5-[4-(methylsulfonyl)phenyl]-3(2H)-pyridazinone] | 134 to 136 °C
CC(C)(C)c1ccc(-n2ncc(-c3ccc(S(C)(=O)=O)cc3)c(-c3ccc(F)cc3)c2=O)cc1 [Example 159, 2-(4-t-Butylphenyl)-4-(4-fluorophenyl)-5-[4-(methylsulfonyl)phenyl]-3(2H)-pyridazinone] | 132 to 136 °C
CS(=O)(=O)c1ccc(-c2cnn(CC(F)(F)F)c(=O)c2Oc2ccc(-c3ccccc3)cc2)cc1 [Example 268, 2-(2,2,2-Trifluoroethyl)-4-(4-phenylphenoxy)-5-[4-(methylsulfonyl)phenyl]-3(2H)-pyridazinone] | 163 to 165 °C
CS(=O)(=O)c1ccc(-c2cnn(-c3ccc(S(N)(=O)=O)cc3)c(=O)c2-c2ccc(F)cc2)cc1 [Example 186, 2-[4-(Aminosulfonyl)phenyl]-4-(4-fluorophenyl)-5-[4-(methylsulfonyl)phenyl]-3(2H)-pyridazinone] | 213 to 216 °C
CS(=O)(=O)c1ccc(-c2cnn(-c3ccc(F)cc3)c(=O)c2OCCC2CC2)cc1 [Example 417, 2-(4-Fluorophenyl)-4-(2-cyclopropyl-1-ethoxy)-5-[4-(methylsulfonyl)phenyl]-3(2H)-pyridazinone] | 111 to 117 °C
CS(=O)(=O)c1ccc(-c2cnn(-c3ccc(F)c(F)c3)c(=O)c2Cc2ccc(F)c(F)c2)cc1 [Example 255, 2-(3,4-Difluorophenyl)-4-(3,4-difluorobenzyl)-5-[4-(methylsulfonyl)phenyl]-3(2H)-pyridazinone] | 177 to 179 °C
CC#Cc1c(-c2ccc(S(C)(=O)=O)cc2)cnn(-c2ccc(F)c(F)c2)c1=O [Example 238, 2-(3,4-Difluorophenyl)-4-(1-propynyl)-5-[4-(methylsulfonyl)phenyl]-3(2H)-pyridazinone] | 149 to 150 °C
CS(=O)(=O)c1ccc(-c2cnn(-c3cccc(Cl)c3)c(=O)c2SCc2ccccc2)cc1 [Example 359, 2-(3-Chlorophenyl)-4-(phenylmethylthio)-5-[4-(methylsulfonyl)phenyl]-3(2H)-pyridazinone] | 142 to 145 °C
CS(=O)(=O)c1ccc(-c2cnn(Cc3cccnc3)c(=O)c2-c2ccc(F)cc2)cc1 [Example 29, 2-(3-Pyridylmethyl)-4-(4-fluorophenyl)-5-[4-(methylsulfonyl)phenyl]-3(2H)-pyridazinone] | 160 to 161 °C
CS(=O)(=O)c1ccc(-c2cnn(-c3cccc(C(F)(F)F)c3)c(=O)c2-c2ccc(Cl)cc2)cc1 [Example 101, 2-(3-Trifluoromethylphenyl)-4-(4-chlorophenyl)-5-[4-(methylsulfonyl)phenyl]-3(2H)-pyridazinone] | 103 to 105 °C
CC(C)CCOc1c(-c2ccc(S(C)(=O)=O)cc2)cnn(-c2cccc(C(F)(F)F)c2)c1=O [Example 543, 2-[3-(Trifluoromethyl)phenyl]-4-(3-methyl-1-butoxy)-5-[4-(methylsulfonyl)phenyl]-3(2H)-pyridazinone] | 82 to 85 °C
CS(=O)(=O)c1ccc(-c2cnn(-c3ccc(F)cc3)c(=O)c2OCC2CC2)cc1 [Example 416, 2-(4-Fluorophenyl)-4-cyclopropylmethoxy-5-[4-(methylsulfonyl)phenyl]-3(2H)-pyridazinone] | 166 to 167 °C
CC(C)CCc1c(-c2ccc(S(C)(=O)=O)c(F)c2)cnn(-c2ccc(F)c(F)c2)c1=O [Example 258, 2-(3,4-Difluorophenyl)-4-(3-methylbutyl)-5-[3-fluoro-4-(methylsulfonyl)phenyl]-3(2H)-pyridazinone] | 119 to 121 °C
CC(C)(O)CCOc1c(-c2ccc(S(N)(=O)=O)cc2)cnn(-c2ccc(F)c(Cl)c2)c1=O [Example 474, 2-(3-Chloro-4-fluorophenyl)-4-(3-hydroxy-3-methyl-1-butoxy)-5-[4-(aminosulfonyl)phenyl]-3(2H)-pyridazinone] | 59 to 62 °C
COc1cc(Nc2c(-c3ccc(S(C)(=O)=O)cc3)cnn(CC(F)(F)F)c2=O)cc(C(F)(F)F)c1 [Example 310, 2-(2,2,2-Trifluoroethyl)-4-[3-methoxy-5-(trifluoromethyl)anilino]-5-[4-(methylsulfonyl)phenyl]-3(2H)-pyridazinone] | 206 to 208 °C
Cc1cc(-c2c(-c3ccc(S(N)(=O)=O)cc3)cnn(-c3ccc(F)c(Cl)c3)c2=O)ccc1F [Example 389, 2-(3-Chloro-4-fluorophenyl)-4-(4-fluoro-3-methylphenyl)-5-[4-(aminosulfonyl)phenyl]-3(2H)-pyridazinone] | 243 to 245 °C

SMILES | melting point
CC(C)(C)Sc1c(-c2ccc(S(C)(=O)=O)cc2)cnn(CC(F)(F)F)c1=O [Example 290, 2-(2,2,2-Trifluoroethyl)-4-(tert-butylthio)-5-[4-(methylsulfonyl)phenyl]-3(2H)-pyridazinone] | 186 to 189 °C
CS(=O)(=O)c1ccc(-c2cnn(CC(F)(F)F)c(=O)c2NC2CCc3ccccc32)cc1 (stereo not drawn) [Example 303, 2-(2,2,2-Trifluoroethyl)-4-(2,3-dihydro-1H-inden-1-ylamino)-5-[4-(methylsulfonyl)phenyl]-3(2H)-pyridazinone] | 155 to 158 °C
COc1ccc(CCNc2c(-c3ccc(S(C)(=O)=O)cc3)cnn(CC(F)(F)F)c2=O)cc1OC [Example 298, 2-(2,2,2-Trifluoroethyl)-4-(3,4-dimethoxyphenethylamino)-5-[4-(methylsulfonyl)phenyl]-3(2H)-pyridazinone] | 163 to 165 °C
CS(=O)(=O)c1ccc(-c2cnn(CC(=O)c3ccc(Cl)cc3)c(=O)c2-c2ccc(F)cc2)cc1 [Example 47, 2-(4-Chlorophenacyl)-4-(4-fluorophenyl)-5-[4-(methylsulfonyl)phenyl]-3(2H)-pyridazinone] | 186 to 188 °C
CC(C)(O)COc1c(-c2ccc(S(N)(=O)=O)cc2)cnn(-c2ccc(F)c(Cl)c2)c1=O [Example 480, 2-(3-Chloro-4-fluorophenyl)-4-(2-hydroxy-2-methyl-1-propoxy)-5-[4-(aminosulfonyl)phenyl]-3(2H)-pyridazinone] | 176 to 178 °C
C[Se](=O)(=O)c1ccc(-c2cnn(-c3ccc(F)cc3)c(=O)c2-c2ccc(F)cc2)cc1 | 110 to 150 °C
CS(=O)(=O)c1ccc(-c2cnn(-c3ccc(C(F)(F)F)cc3)c(=O)c2-c2ccc(F)cc2)cc1 [Example 174, 2-(4-Trifluoromethylphenyl)-4-(4-fluorophenyl)-5-[4-(methylsulfonyl)phenyl]-3(2H)-pyridazinone] | 171 to 173 °C
CC(C)COc1c(-c2ccc(S(C)(=O)=O)cc2)cnn(-c2ccc(Cl)c(Cl)c2)c1=O [Example 539, 2-(3,4-Dichlorophenyl)-4-(2-methyl-1-propoxy)-5-[4-(methylsulfonyl)phenyl]-3(2H)-pyridazinone] | 127 to 129 °C
CS(=O)(=O)c1ccc(-c2cnn(-c3ccc(F)cc3)c(=O)c2N2CCCC2)cc1 [Example 356, 2-(4-Fluorophenyl)-4-(1-pyrrolidinyl)-5-[4-(methylsulfonyl)phenyl]-3(2H)-pyridazinone] | 192 to 195 °C
CC(C)(CO)COc1c(-c2ccc(S(C)(=O)=O)cc2)cnn(-c2ccc(F)c(F)c2)c1=O [Example 510, 2-(3,4-Difluorophenyl)-4-(3-hydroxy-2,2-dimethyl-1-propoxy)-5-[4-(methylsulfonyl)phenyl]-3(2H)-pyridazinone] | 161 to 162 °C
CS(=O)(=O)c1ccc(-c2cnn(CC(O)c3ccccc3)c(=O)c2-c2ccc(F)cc2)cc1 (stereo not drawn) [Example 441, 2-(2-Hydroxy-2-phenylethyl)-4-(4-fluorophenyl)-5-[4-(methylsulfonyl)phenyl]-3(2H)-pyridazinone] | 205 to 207 °C
CS(=O)(=O)c1ccc(-c2cnn(CC(F)(F)F)c(=O)c2NCCCO)cc1 [Example 305, 2-(2,2,2-Trifluoroethyl)-4-(3-hydroxypropylamino)-5-[4-(methylsulfonyl)phenyl]-3(2H)-pyridazinone] | 152 to 154 °C
CC=C(C)c1c(-c2ccc(S(C)(=O)=O)cc2)cnn(CC(F)(F)F)c1=O [Example 223, 2-(2,2,2-Trifluoroethyl)-4-(2-buten-2-yl)-5-[4-(methylsulfonyl)phenyl]-3(2H)-pyridazinone] | 175 to 180 °C
NS(=O)(=O)c1ccc(-c2cnn(C3CC=CCC3)c(=O)c2-c2ccc(F)cc2)cc1 (stereo not drawn) [Example 126] | 206 to 208 °C
CC(C)(C)CCOc1c(-c2ccc(S(C)(=O)=O)cc2)cnn(CC(F)(F)F)c1=O [Example 280, 2-(2,2,2-Trifluoroethyl)-4-(3,3-dimethylbutoxy)-5-[4-(methylsulfonyl)phenyl]-3(2H)-pyridazinone] | 83 to 85 °C
CS(=O)(=O)c1ccc(-c2cnn(CC(F)(F)F)c(=O)c2OC2CCc3ccccc32)cc1 (stereo not drawn) [Example 276, 2-(2,2,2-Trifluoroethyl)-4-(1-indanyloxy)-5-[4-(methylsulfonyl)phenyl]-3(2H)-pyridazinone] | 113 to 114 °C
NS(=O)(=O)c1ccc(-c2cnn(Cc3c(F)cc(F)cc3F)c(=O)c2-c2ccc(F)cc2)cc1 [Example 151, 2-(2,4,6-Trifluorobenzyl)-4-(4-fluorophenyl)-5-[4-(aminosulfonyl)phenyl]-3(2H)-pyridazinone] | 201 to 203 °C
CS(=O)(=O)c1ccc(-c2cnn(CC(F)(F)F)c(=O)c2OCc2ccccc2)cc1 [Example 270, 2-(2,2,2-Trifluoroethyl)-4-(phenylmethoxy)-5-[4-(methylsulfonyl)phenyl]-3(2H)-pyridazinone] | 121 to 123 °C
